Source: patent publication US20090306207A1, “Treatment of Drug-Resistant Proliferative Disorders” (priority 2005, published 2009)
Each block holds one molecule with its values, some of them ahead of it.

Columns and labels:
32D/BCR-ABL^T315I cells = test: In vivo growth of cells expressing imatinib-resistant BCR-ABL T315I (blood smears); parameters: species or system athymic nude mice; conditions: 100 mg/kg daily intraperitoneal; days 7 and 14; compared to vehicle and imatinib treated groups
Description: Blood smears on the treated mice were performed 7 and 14 days after the start of treatments. One drop of blood from each mouse was smeared onto glass slides, air dried and stained with modified Wright stain (Sigma). The T315I cells in the blood were easily visible due to their blue staining and size difference. The number of T315I cells per 10 fields was determined by counting 10 fields of view containing an equal density of red blood cells using a 40× objective on an upright Olympus microscope.

[1] = tested on: 32Dcl3 cells expressing BCR-ABL Q252H; test: Cell viability (trypan blue exclusion), BCR-ABL Q252H cells; format: cell-based, murine; conditions: 72 hours
CML K562 cells = test: Cell viability (trypan blue exclusion), K562 cells; format: cell-based
Description: K562 cells were maintained in RPMI (Roswell Park Memorial Institute) medium supplemented with 10% FBS and 1 U/ml penicillin-streptomycin.
(§1) Cell viability was then determined by trypan blue exclusion.

[2] = tested on: 32Dcl3 cells expressing BCR-ABL M351T; test: Cell viability (trypan blue exclusion), BCR-ABL M351T cells; format: cell-based, murine; conditions: Mus musculus, 72 hours
[3] = tested on: 32Dcl3 cells expressing BCR-ABL E255V; test: Cell viability (trypan blue exclusion), BCR-ABL E255V cells
Description: (§2) Mutations corresponding to those published in the literature (Shah et al., Oncogene, 22, 7389-7395 (2003)) were introduced into the bcr-abl cDNA, which was then introduced into actively proliferating 32Dcl3 cells (Rovera et al., Oncogene 1, 29-35 (1987)) according to the following procedure.
(§3) The expression of the BCR-ABL proteins was determined by Western blot and kinase assays.
(§4) Transfectants were selected in the absence of IL-3.
(§5) The total number of viable cells was determined by trypan blue exclusion at 72 hours post-treatment. The percent viable cells compared to vehicle-treated controls was determined.
(§6) The wild type comprises 32Dcl3.BCR-ABL cells that ectopically expressed the wild-type p210^BCR-ABL oncoprotein. The total number of viable cells was determined by trypan blue exclusion at 72 hours post-treatment. The percent viable cells compared to vehicle-treated controls was determined.

[4] = tested on: 32Dcl3 cells expressing BCR-ABL T315I; test: Cell viability (trypan blue exclusion), BCR-ABL T315I cells
Description: as §2, §3, §4, §5, §6

[5] = tested on: 32Dcl3 cells expressing BCR-ABL E255K; test: Cell viability (trypan blue exclusion), BCR-ABL E255K cells
Description: as §3, §4, §5, §6

[6] = tested on: 32Dcl3 cells expressing BCR-ABL F359V; test: Cell viability (trypan blue exclusion), BCR-ABL F359V cells; format: cell-based, murine; conditions: Mus musculus, 72 hours
[7] = tested on: 32Dcl3 cells expressing BCR-ABL F317L; test: Cell viability (trypan blue exclusion), BCR-ABL F317L cells; format: cell-based, murine; conditions: Mus musculus, 72 hours
[8] = tested on: 32Dcl3 cells expressing BCR-ABL Y253F; test: Cell viability (trypan blue exclusion), BCR-ABL Y253F cells
Description: as §2, §3, §4, §5, §6

[9] = tested on: 32Dcl3 cells expressing BCR-ABL E355G; test: Cell viability (trypan blue exclusion), BCR-ABL E355G cells; format: cell-based, murine; conditions: Mus musculus, 72 hours
[10] = tested on: 32Dcl3.BCR-ABL cells expressing wild-type p210 BCR-ABL; test: Cell viability (trypan blue exclusion), cells expressing wild-type BCR-ABL; format: cell-based, murine; conditions: for GI50: Mus musculus, 72 hours
Description: as §1
Cells expressing the wild-type p210^BCA-ABL oncoprotein (32Dcl3.BCR-ABL) or the BCR-ABL mutations G250E, T315I or M351T, were incubated with varying concentrations of Compound 4 ((E)-1-(2-(4-bromobenzylsulfonyl)vinyl)-2,4-difluorobenzene).

normal bone marrow cells = test: Hematopoietic colony formation assay; format: in vivo, CD-1 mice; conditions: 100 mg/kg intravenous; bone marrow cells extracted after 24 hrs
Description: To examine the effects of Compound 1 on normal hematopoietic cell population in vivo, a dose of 100 mg/kg of this compound in normal saline (or saline alone as a control) was injected intravenously (tail vein injection) into CD-1 mice (10 animals per group). The effect on the in vitro hematopoietic colony formation of normal bone marrow cells derived from these mice was determined 24 hrs following administration. Bone marrow cells were extracted from the mice after 24 hrs and 2×10^5 cells were plated on methylcellulose containing appropriate cytokines for lineage specific colony formation. Colonies were counted after 5 to 14 days of incubation.

[11] = tested on: 32Dcl3 cells expressing BCR-ABL H396R; test: Cell viability (trypan blue exclusion), BCR-ABL H396R cells; format: cell-based, murine; conditions: Mus musculus, 72 hours
[12] = tested on: 32Dcl3 cells expressing BCR-ABL Y253H; test: Cell viability (trypan blue exclusion), BCR-ABL Y253H cells; format: cell-based, murine; conditions: Mus musculus, 72 hours
[13] = tested on: 32Dcl3 cells transfected to express wild-type or imatinib-resistant forms of BCR-ABL; test: Growth inhibition of the panel of cells expressing wild-type or imatinib-resistant forms of BCR-ABL; format: cell-based, murine
Description: as §3, §5, §6

[14] = tested on: 32Dcl3 cells expressing BCR-ABL G250E; test: Cell viability (trypan blue exclusion), BCR-ABL G250E cells
Description: as §2, §3, §4, §5, §6

[15] = tested on: 32Dcl3 cells expressing BCR-ABL L387M; test: Cell viability (trypan blue exclusion), BCR-ABL L387M cells
Description: as §3, §4, §5, §6

[16] = tested on: 32Dcl3 cells expressing BCR-ABL H396P; test: Cell viability (trypan blue exclusion), BCR-ABL H396P cells; format: cell-based, murine; conditions: Mus musculus, 72 hours
[17] = tested on: 32Dcl3 cells expressing BCR-ABL F311L; test: Cell viability (trypan blue exclusion), BCR-ABL F311L cells
Description: as §2, §3, §4, §5, §6

[18] = tested on: 32Dcl3 cells expressing BCR-ABL M244V; test: Cell viability (trypan blue exclusion), BCR-ABL M244V cells; format: cell-based, murine; conditions: Mus musculus, 72 hours
[19] = Toxicity in treated mice (body weight, signs); conditions: 100 mg/kg daily intraperitoneal for 10 days
Description: Female athymic nude mice (ncr/ncr) were injected intravenously with 1×10^6 32Dcl3 cells expressing the mutant BCR-ABL^T315I via the tail vein.
Body weights of the test animals were taken every two days.

Structure (SMILES): COc1cc(OC)c(/C=C/S(=O)(=O)Cc2ccc(OC)c(NC(C)C(=O)O)c2)c(OC)c1 (centres unmarked) [Compound 1, (E)-2-(5-((2,4,6-trimethoxystyrylsulfonyl)methyl)-2-methoxyphenylamino) propanoic acid]
number of T315I cells in the blood (32D/BCR-ABL^T315I cells): significantly reduced
LD50 [1]: 7.0 nM
concentration inhibiting proliferation, fold less than that shown for imatinib (CML K562 cells; BCR-ABL+ cell lines (K562 and 32Dcl3.BCR-ABL)): 10 fold
LD50 (loss of viability) (CML K562 cells; K562 cells, 72 hours incubation): 10 to 15 nM
GI50 [2]: 0.0078 µM
LD50 ([3]; E255V, 72 hours): 7.8 nM
LD50 ([4]; T315I, 72 hours): 7.5 nM
LD50 ([5]; E255K, 72 hours): 8.4 nM
GI50 [6]: 0.0071 µM
GI50 [7]: 0.0078 µM
LD50 ([8]; 72 hours): 6.8 nM
GI50 [9]: 0.0078 µM
LD50 (loss of viability) ([10]; 32Dcl3.BCR-ABL cells, 72 hours incubation): 10 to 15 nM
GI50 ([10]; None (wt), trypan blue exclusion): 0.01 µM
colony formation of the erythroid, myeloid or lymphoid lineages (normal bone marrow cells): No reduction in colony formation
GI50 [11]: 0.0068 µM
GI50 [12]: 0.0078 µM
sensitivity to growth inhibitory activity ([13]; all transfected cell lines, including T315I mutant, various concentrations, 72 hours): extremely sensitive
LD50 ([14]; G250E, 72 hours): 5.9 nM
LD50 ([15]; L387M, 72 hours): 7.1 nM
GI50 [16]: 0.0079 µM
LD50 ([17]; F311L, 72 hours): 6.8 nM
GI50 [18]: 0.0078 µM

Structure (SMILES): COc1cc(OC)c(/C=C/S(=O)(=O)Cc2ccc(OC)c(NCC(=O)O)c2)c(OC)c1 [Compound 2, (E)-2-(5-((2,4,6-trimethoxystyrylsulfonyl)methyl)-2-methoxyphenylamino) acetic acid]
sensitivity to growth-inhibitory activity ([13]; cell lines listed in Table 2, 250 nM): sensitive

GI50 [11]: 0.06 µM
GI50 [16]: 0.05 µM
Structure (SMILES): COc1cc(OC)c(/C=C/S(=O)(=O)Cc2ccc(OC)c(NC(C)(C)C(=O)O)c2)c(OC)c1 [Compound 3, (E)-2-(5-((2,4,6-trimethoxystyryl-sulfonyl)methyl)-2-methoxyphenylamino)-2-methylpropanoic acid]
GI50 ([1]; Mus musculus): 0.04 µM
GI50 [2]: 0.06 µM
GI50 ([3]; Mus musculus, 72 h): 0.05 µM
GI50 ([4]; Mus musculus, 72 h): 0.06 µM
GI50 ([5]; Mus musculus, 72 h): 0.05 µM
GI50 [6]: 0.07 µM
GI50 [7]: 0.06 µM
GI50 ([8]; 72 hours): 0.07 µM
GI50 ([8]; Mus musculus, 72 h): 0.04 µM
GI50 [9]: 0.05 µM
GI50 ([10]; Wild-type): 0.04 µM
GI50 [12]: 0.03 µM
sensitivity to growth-inhibitory activity ([13]; cell lines listed in Table 3, various concentrations, 72 hours): sensitive
GI50 ([14]; Mus musculus, 72 h): 0.025 µM
GI50 ([15]; Mus musculus, 72 h): 0.05 µM
GI50 ([17]; Mus musculus, 72 h): 0.07 µM

Structure (SMILES): O=S(=O)(/C=C/c1ccc(F)cc1F)Cc1ccc(Br)cc1 [Compound 4, (E)-1-(2-(4-bromobenzylsulfonyl)vinyl)-2,4-difluorobenzene]
sensitivity to growth-inhibitory activity ([13]; wild-type, G250E, T315I or M351T, varying concentrations, 72 hours): sensitive

Structure (SMILES): Cc1ccc(NC(=O)c2ccc(CN3CCN(C)CC3)cc2)cc1Nc1nccc(-c2cccnc2)n1 [imatinib, Imatinib]
loss of bodyweight [19]: > 20%
